# Assay results reported in patent publication US20230039086A1, “BMS-986165 CRYSTAL FORM, PREPARATION METHOD THEREFOR AND USE THEREOF” (CRYSTAL PHARMACEUTICAL (SUZHOU) CO., LTD., priority 2019, published 2023).
# “Also recorded” adds a separate entry of the source.
# Experiments:
# [1] = phase III clinical study results announced in November 2020, moderate to severe plaque psoriasis; cited from earlier work
# [2] = systemic lupus erythematosus and Crohn's disease; cited from earlier work
# [3] = Compressibility (ENERPAC manual tablet press, tablet hardness and tensile strength); assay type: physicochemical; conditions: 80 mg, φ6 mm round tooling, 10 KN; for Diameter / Hardness / Thickness: after 24 h at room temperature; for Tensile strength: calculated T=2H/πDL*9.8
# Experimental: (§1) ENERPAC manual tablet press was used for compression. 80 mg of Form CSI and Form A were weighed and added into the dies of a φ6 mm round tooling, compressed at 10 KN manually, then stored at room temperature for 24 h until complete elastic recovery. Hardness (H) was tested with an intelligent tablet hardness tester. Diameter (D) and thickness (L) were tested with caliper. Tensile strength of the powder was calculated with the following formula: T=2H/πDL*9.8. Under a certain force, the greater the tensile strength, the better the compressibility.
# as §1, with “CSII” for “CSI”
# [4] = Adhesiveness (material sticking to the punch during compression); assay type: physicochemical; conditions: for Adhesiveness (in words): compared with Form A where a comparison is stated
# Experimental: Approximately 30 mg of Form CSII and Form A were weighed and then added into the dies of φ8 mm round tooling, compressed at 10 kN and held for 30 s. The material sticking to the punch was recorded. The compression was repeated twice and the cumulative amount, maximum amount and average amount of material sticking to the punch during the compression were recorded.
# [5] = Thermodynamic stability: suspension of Form A plus Form CSI stirred at 5 °C, solid checked by XRPD; assay type: physicochemical
# Experimental: A certain amount of Form A was weighed into glass vail and 0.3 mL of solvent mixtures of water and acetonitrile, water and methanol, or water and acetone according to table 8 were added to form suspensions. Approximately 6 mg of Form CSI of the present disclosure was added in the suspension. After mixing at 5° C. for 5 minutes, a portion of the solid was taken out and tested by XRPD. After the suspension was stirred at 5° C. for 6 days, a portion of the solid was taken out and tested by XRPD again.
# [6] = Storage stability at 25 °C/60% RH and 40 °C/75% RH, crystalline form by XRPD and chemical purity by HPLC; assay type: physicochemical; conditions: for Purity: HPLC; for Crystalline form after storage: XRPD
# Experimental: Approximately 5 mg of Form CSI in the present disclosure was stored under different conditions of 25° C./60% RH and 40° C./75% RH. Crystalline form and chemical purity were checked by XRPD and HPLC, respectively.
# Approximately 5 mg of Form CSII in the present disclosure was stored under different conditions of 25° C./60% RH and 40° C./75% RH. Crystalline form and chemical purity were checked by XRPD and HPLC, respectively.
# [7] = Physical stability under pressure (tableting), XRPD before and after; assay type: physicochemical
# Text: A certain amount of Form CSI was compressed into tablets under 3 kN, 7 kN and 14 kN with suitable tableting die. Crystalline forms before and after tableting were checked by XRPD.
# A certain amount of Form CSII was compressed into tablets under 5 kN, 10 kN and 20 kN with suitable tableting die. Crystalline forms before and after tableting were checked by XRPD.
# [8] = Physical stability on manual grinding, XRPD before and after; assay type: physicochemical; conditions: ground manually for 5 minutes in a mortar
# Experimental: Form CSII was grounded manually for 5 minutes in a mortar. Crystalline form before and after grinding were checked by XRPD.
# [9] = about 30 mg, φ8 mm round tooling, 10 kN held for 30 s
# [10] = 25 °C/60% RH, open and sealed, 6 months
# [11] = 25 °C/60% RH, sealed (closed), 6 months
# [12] = 40 °C/75% RH, open and sealed, 6 months
# [13] = 40 °C/75% RH, sealed (closed), 6 months
"Average amount of material sticking to the punch [4, 9] [mg]","Maximum amount of material sticking to the punch [4, 9] [mg]",Adhesiveness (in words) [4],"Time for which the crystalline form is stable (does not change) ([6]; 25 °C/60% RH, open and sealed)","Change of chemical purity during storage (in words) [6, 10]","Crystalline form after storage ([6]; 25 °C/60% RH, open, 6 months)","Crystalline form after storage [6, 11]","Time for which the crystalline form is stable (does not change) ([6]; 40 °C/75% RH, open and sealed)","Change of chemical purity during storage (in words) [6, 12]","Crystalline form after storage ([6]; 40 °C/75% RH, open, 6 months)","Crystalline form after storage [6, 13]",Diameter [3] [mm],Hardness [3] [kgf],Thickness [3] [mm],Tensile strength [3] [MPa],SMILES,Compressibility / behaviour during tablet pressing (in words) [3],further results
,,,,,,,,,,,,,,,"[2H]C([2H])([2H])NC(=O)c1nnc(NC(=O)C2CC2)cc1Nc1cccc(-c2ncn(C)n2)c1OC [BMS-986165, 6-(cyclopropanecarboxamido)-4-((2-methoxy-3-(1-methyl-1H-1,2,4-triazol-3-yl)phenyl)amino)-N-(methyl-d3)pyridazine-3-carboxamide]",,Clinical effect [1]: positive clinical effects; Therapeutic effect [2]: good therapeutic effects
0.190,0.260,high adhesiveness,,,,,,,,,,,,,"[2H]C([2H])([2H])NC(=O)c1nnc(NC(=O)C2CC2)cc1Nc1cccc(-c2ncn(C)n2)c1OC [Form A, 6-(cyclopropanecarboxamido)-4-((2-methoxy-3-(1-methyl-1H-1,2,4-triazol-3-yl)phenyl)amino)-N-(methyl-d3)pyridazine-3-carboxamide, reference compound]",poor compressibility; also recorded: splintering,"Adhesion quantity of Form A relative to that of Form CSII [4, 9]: 3.2 times"
0.105,0.130,superior to that of Form A,at least 6 months,remains substantially unchanged,CSI,CSI,at least 6 months,remains substantially unchanged,CSI,CSI,6.06,7.87,2.39,3.39,"[2H]C([2H])([2H])NC(=O)c1nnc(NC(=O)C2CC2)cc1Nc1cccc(-c2ncn(C)n2)c1OC [Form CSI, 6-(cyclopropanecarboxamido)-4-((2-methoxy-3-(1-methyl-1H-1,2,4-triazol-3-yl)phenyl)amino)-N-(methyl-d3)pyridazine-3-carboxamide]",better compressibility compared with Form A,"Crystalline form of solid after stirring time 5 minutes ([5]; mixture of Form A and about 6 mg Form CSI suspended in 0.3 mL water/acetonitrile, water/methanol or water/acetone (samples 1-7), 5 minutes, XRPD): Form A +; Crystalline form of solid after stirring time 6 days ([5]; mixture of Form A and about 6 mg Form CSI suspended in 0.3 mL water/acetonitrile, water/methanol or water/acetone (samples 1-7), 6 days, XRPD): CSI; Stability relative to Form A (in words) ([5]; water/acetonitrile, water/methanol or water/acetone): better stability than Form A; Chemical purity during storage [6, 10]: above 98.0%; Purity ([6]; 25 °C/60% RH, open, 6 months): 98.76%; Purity ([6]; 25 °C/60% RH, sealed, 6 months): 98.79%; Purity ([6]; 40 °C/75% RH, open, 6 months): 98.74%; Purity ([6]; 40 °C/75% RH, sealed, 6 months): 98.73%; Purity ([6]; initial): 98.13%; Crystalline state after tableting ([7]; tablets compressed under 3 kN, 7 kN and 14 kN): does not change; also recorded: doesn't change"
0.06,0.06,superior to that of Form A,at least 6 months,remains substantially unchanged,Form CSII,Form CSII,at least 6 months,remains substantially unchanged,Form CSII,Form CSII,6.08,4.24,2.30,1.89,"[2H]C([2H])([2H])NC(=O)c1nnc(NC(=O)C2CC2)cc1Nc1cccc(-c2ncn(C)n2)c1OC [Form CSII, 6-(cyclopropanecarboxamido)-4-((2-methoxy-3-(1-methyl-1H-1,2,4-triazol-3-yl)phenyl)amino)-N-(methyl-d3)pyridazine-3-carboxamide]",better compressibility compared with Form A,"Crystalline state after tableting ([7]; tablets compressed under 5 kN, 10 kN and 20 kN): does not change; Crystalline state after grinding [8]: does not change; also recorded: doesn't change"
